Reference: patent EP1409705B1, “A PROCESS FOR THE PRODUCTION OF AN INHIBITOR OF HUMAN PLATELET AGGREGATION AND SOYBEAN LIPOXYGENASE” (Council of Scientific and Industrial Research;an Indian …, priority 2001, dated 2002)

What was measured:
[1] = solubility in organic solvents; assay type: physicochemical; conditions: in chloroform, dimethylsulfoxide, acetonitrile
soybean lipoxygenase = target: T1, soybean lipoxygenase (Glycine max, UniProt P08170); experiment: soybean lipoxygenase inhibition; assay type: biochemical; conditions: purified inhibitor, red crystals; pH 9; read-out: ic50 activity against soybean lipoxygenase
T1 sequence (P08170 1-839): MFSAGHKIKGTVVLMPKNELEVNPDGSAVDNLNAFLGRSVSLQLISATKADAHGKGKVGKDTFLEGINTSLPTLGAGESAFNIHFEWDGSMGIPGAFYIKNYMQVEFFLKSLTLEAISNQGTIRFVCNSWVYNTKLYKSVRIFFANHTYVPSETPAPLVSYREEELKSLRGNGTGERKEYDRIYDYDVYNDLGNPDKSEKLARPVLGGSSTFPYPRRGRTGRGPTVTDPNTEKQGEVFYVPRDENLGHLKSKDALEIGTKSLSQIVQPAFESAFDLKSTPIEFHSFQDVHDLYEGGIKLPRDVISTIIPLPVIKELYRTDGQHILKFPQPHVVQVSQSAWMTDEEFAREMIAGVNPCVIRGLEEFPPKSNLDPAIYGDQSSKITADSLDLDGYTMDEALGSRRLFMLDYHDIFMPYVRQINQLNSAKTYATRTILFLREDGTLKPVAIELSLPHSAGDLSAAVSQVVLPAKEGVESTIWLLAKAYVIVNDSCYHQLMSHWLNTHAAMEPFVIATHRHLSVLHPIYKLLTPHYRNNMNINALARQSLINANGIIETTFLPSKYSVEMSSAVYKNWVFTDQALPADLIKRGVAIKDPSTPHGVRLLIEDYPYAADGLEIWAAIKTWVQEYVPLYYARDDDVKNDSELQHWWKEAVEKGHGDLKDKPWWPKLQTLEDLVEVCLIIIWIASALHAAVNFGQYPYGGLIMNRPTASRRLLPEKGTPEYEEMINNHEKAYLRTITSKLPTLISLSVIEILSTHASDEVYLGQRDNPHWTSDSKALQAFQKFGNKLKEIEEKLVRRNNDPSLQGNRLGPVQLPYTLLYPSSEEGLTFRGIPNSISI

[2] = tested on: human platelet aggregation; experiment: human platelet aggregation inhibition; assay type: cell-based; conditions: purified inhibitor, red crystals, read-out: ic50 activity against human platelet aggregation

CCC(=O)C=CC=CC(C)=CC=CC=Cc1ccccc1 [inhibitor, 8-methyl 13-phenyl trideca 4,6,8,10,12 pentene-3-one]
Solubility [1]: highly soluble
IC50 (soybean lipoxygenase): 95.6 µM
IC50 [2]: 234 µM
